Test results reported in PubChem BioAssay (NCI).
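Briefly, cells in 96-well plates were exposed to five compound concentrations for 48 h, and endpoints were estimated by linear interpolation. Here, GI50 denotes the concentration required for 50% inhibition of growth. TGI: total growth inhibition.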

Experiments:
Test in all cases: DTP human tumour cell line panel, 48 h
[1] = test system: U251 CNS
[2] = test system: SNB-19 CNS
[3] = test system: HCT-116 colon
[4] = test system: HS 578T breast
[5] = test system: NCI-H522 lung
[6] = test system: COLO 205 colon
[7] = test system: SN12C renal
[8] = test system: MALME-3M melanoma
[9] = test system: SK-OV-3 ovarian
[10] = test system: BT-549 breast
[11] = test system: A549 NSCLC
[12] = test system: CCRF-CEM leukemia
[13] = test system: A498 renal
[14] = test system: HOP-62 NSCLC
[15] = test system: SR leukemia
[16] = test system: SK-MEL-5 melanoma
[17] = test system: EKVX NSCLC
[18] = test system: SF-295 CNS
[19] = test system: NCI/ADR-RES ovarian
[20] = test system: CAKI-1 renal
[21] = test system: NCI-H226 lung
[22] = test system: TK-10 renal
[23] = test system: DU-145 prostate
[24] = test system: HCT-15 colon
[25] = test system: ACHN renal
[26] = test system: KM12 colon
[27] = test system: OVCAR-8 ovarian

C#CCN=C(N/N=C/c1ccc([N+](=O)[O-])o1)NS(=O)(=O)c1cc(C)c(Cl)cc1SCC(N)=O
GI50 [1]: 22.6 µM
TGI [1]: 84.9 µM
GI50 [2]: 50.6 µM
TGI [2]: > 100 µM
GI50 [3]: 8.03 µM
TGI [3]: 20.3 µM
GI50 [4]: 19.8 µM
TGI [4]: 49.5 µM
GI50 [5]: 10 µM
TGI [5]: 23.3 µM
GI50 [6]: 26.9 µM
TGI [6]: 84.4 µM
GI50 [7]: 15.5 µM
TGI [7]: 29.4 µM
GI50 [8]: 13.6 µM
TGI [8]: 27.7 µM
GI50 [9]: 49.2 µM
TGI [9]: > 100 µM
GI50 [10]: 1790 nM
TGI [10]: 9.43 µM
GI50 [11]: 18 µM
TGI [11]: 35.3 µM
GI50 [12]: 22.2 µM
TGI [12]: 57.4 µM
GI50 [13]: 17.1 µM
TGI [13]: 32.7 µM
GI50 [14]: 12.9 µM
TGI [14]: 25.7 µM
GI50 [15]: 17 µM
TGI [15]: 50.1 µM
GI50 [16]: 4.14 µM
TGI [16]: 15.2 µM
GI50 [17]: 17.8 µM
TGI [17]: 32.2 µM
GI50 [18]: 22.8 µM
TGI [18]: 47.1 µM
GI50 [19]: 94.3 µM
TGI [19]: > 100 µM
GI50 [20]: 25.7 µM
TGI [20]: 45.1 µM
GI50 [21]: 20.1 µM
TGI [21]: 40.5 µM
GI50 [22]: 22.2 µM
TGI [22]: 38.3 µM
GI50 [23]: 11.6 µM
TGI [23]: 24.5 µM
GI50 [24]: 22.1 µM
TGI [24]: 56.4 µM
GI50 [25]: 16.7 µM
TGI [25]: 36.8 µM
GI50 [26]: 18.8 µM
TGI [26]: 38.9 µM
GI50 [27]: 13.8 µM
TGI [27]: 29.6 µM
